Data: PMC6364417, “Kinase inhibitor library screening identifies synergistic drug combinations effective in sensitive and resistant melanoma cells” (Journal of Experimental & Clinical Cancer Research : CR, 2019)

Key:
Assay in all cases: Kinase inhibitor library screening, PrestoBlue cell viability, 1 or 10 μM, 72 h
[1] = test system: IGR37-GP cells (Dabrafenib-resistant); settings: IGR37 GP
501Mel cells (parental) = settings: 501Mel Parental, in %
How it was run: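 Two concentrations of every kinase inhibitor were tested on each melanoma line and its resistant counterparts, and cell survival was quantified by PrestoBlue against untreated wells.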

A375 cells (parental) = settings: A375 Parental; for cell viability (kinase inhibitor library screening) / cell viability, A375 Parental, 1μΜ / cell viability, A375 Parental, 10μΜ: in %
[2] = test system: 501Mel-XP cells (Vemurafenib-resistant); settings: 501Mel XP, in %
[3] = test system: A375-GP cells (Dabrafenib-resistant); settings: A375 GP; for cell viability (kinase inhibitor library screening) / cell viability, A375 GP, 1μΜ / cell viability, A375 GP, 10μΜ: in %
IGR37 cells (parental) = settings: IGR37 Parental, in %
[4] = test system: A375-XP cells (Vemurafenib-resistant); settings: A375 XP; for cell viability (kinase inhibitor library screening) / cell viability, A375 XP, 1μΜ / cell viability, A375 XP, 10μΜ: in %
[5] = test system: 501Mel-GP cells (Dabrafenib-resistant); settings: 501Mel GP, in %
[6] = test system: IGR37-XP cells (Vemurafenib-resistant); settings: IGR37 XP

CC1(C)CNc2cc(NC(=O)c3cccnc3NCc3ccncc3)ccc21 [Motesanib Diphosphate]
cell viability (kinase inhibitor library screening) ([1]; 1μΜ, in %): 85.5 | cell viability (kinase inhibitor library screening) ([1]; 10μΜ, in %): 85.5 | cell viability (kinase inhibitor library screening) (501Mel cells (parental); 1μΜ): 97.3 | cell viability (kinase inhibitor library screening) (501Mel cells (parental); 10μΜ): 94.6 | cell viability (kinase inhibitor library screening) (A375 cells (parental); 1μΜ): 105.3 | cell viability (kinase inhibitor library screening) (A375 cells (parental); 10μΜ): 89.5 | cell viability (kinase inhibitor library screening) ([2]; 1μΜ): 91.0 | cell viability (kinase inhibitor library screening) ([2]; 10μΜ): 71.5 | cell viability (kinase inhibitor library screening) ([3]; 1μΜ): 99.4 | cell viability (kinase inhibitor library screening) ([3]; 10μΜ): 89.9 | cell viability (kinase inhibitor library screening) (IGR37 cells (parental); 1μΜ): 97.7 | cell viability (kinase inhibitor library screening) (IGR37 cells (parental); 10μΜ): 97.0 | cell viability (kinase inhibitor library screening) ([4]; 1μΜ): 109.8 | cell viability (kinase inhibitor library screening) ([4]; 10μΜ): 97.0 | cell viability (kinase inhibitor library screening) ([5]; 1μΜ): 98.5 | cell viability (kinase inhibitor library screening) ([5]; 10μΜ): 82.7 | cell viability (kinase inhibitor library screening) ([6]; 10μΜ, in %): 78.2

O=c1cc(N2CCOCC2)oc2c(-c3cccc4c3sc3ccccc34)cccc12 [NU7441(KU-57788)]
cell viability, IGR37 GP, 10μΜ ([1]; 10μΜ, 72 h): 49.3% | cell viability, IGR37 GP, 1μΜ ([1]; 1μΜ, 72 h, in %): 92.2 | cell viability, 501Mel Parental, 10μΜ (501Mel cells (parental); 10μΜ, 72 h): 61.0 | cell viability, A375 Parental, 1μΜ (A375 cells (parental); 1μΜ, 72 h): 98.8 | cell viability, A375 Parental, 10μΜ (A375 cells (parental); 10μΜ, 72 h): 52.7 | cell viability, 501Mel XP, 10μΜ ([2]; 10μΜ, 72 h): 10.9 | cell viability, A375 GP, 1μΜ ([3]; 1μΜ, 72 h): 92.7 | cell viability, A375 GP, 10μΜ ([3]; 10μΜ, 72 h): 47.4 | cell viability, IGR37 Parental, 1μΜ (IGR37 cells (parental); 1μΜ, 72 h): 96.8 | cell viability, IGR37 Parental, 10μΜ (IGR37 cells (parental); 10μΜ, 72 h): 98.9 | cell viability, A375 XP, 1μΜ ([4]; 1μΜ, 72 h): 98.6 | cell viability, A375 XP, 10μΜ ([4]; 10μΜ, 72 h): 55.7 | cell viability, 501Mel GP, 1μΜ ([5]; 1μΜ, 72 h): 93.7 | cell viability, 501Mel GP, 10μΜ ([5]; 10μΜ, 72 h): 32.9 | cell viability, IGR37 XP, 10μΜ ([6]; 10μΜ, 72 h): 20.1% | cell viability, IGR37 XP, 1μΜ ([6]; 1μΜ, 72 h, in %): 99.7

Nc1ncnc2c1c(-c1cccc(OCc3ccccc3)c1)cn2C1CC(CN2CCCC2)C1 (stereo not drawn) [NVP-ADW742]
cell viability, IGR37 GP, 10μΜ ([1]; 10μΜ, 72 h): 1.6% | cell viability, IGR37 GP, 1μΜ ([1]; 1μΜ, 72 h, in %): 83.7 | cell viability, 501Mel Parental, 1μΜ (501Mel cells (parental); 1μΜ, 72 h): 80.8 | cell viability, 501Mel Parental, 10μΜ (501Mel cells (parental); 10μΜ, 72 h): 0.529 | cell viability, A375 Parental, 1μΜ (A375 cells (parental); 1μΜ, 72 h): 89.6 | cell viability, A375 Parental, 10μΜ (A375 cells (parental); 10μΜ, 72 h): 25.2 | cell viability, 501Mel XP, 1μΜ ([2]; 1μΜ, 72 h): 82.0 | cell viability, 501Mel XP, 10μΜ ([2]; 10μΜ, 72 h): -0.346 | cell viability, A375 GP, 1μΜ ([3]; 1μΜ, 72 h): 57.9 | cell viability, A375 GP, 10μΜ ([3]; 10μΜ, 72 h): 20.2 | cell viability, IGR37 Parental, 1μΜ (IGR37 cells (parental); 1μΜ, 72 h): 110.2 | cell viability, IGR37 Parental, 10μΜ (IGR37 cells (parental); 10μΜ, 72 h): 0.537 | cell viability, A375 XP, 1μΜ ([4]; 1μΜ, 72 h): 90.5 | cell viability, A375 XP, 10μΜ ([4]; 10μΜ, 72 h): 13.9 | cell viability, 501Mel GP, 1μΜ ([5]; 1μΜ, 72 h): 91.7 | cell viability, 501Mel GP, 10μΜ ([5]; 10μΜ, 72 h): -0.2 | cell viability, IGR37 XP, 10μΜ ([6]; 10μΜ, 72 h): 1.2% | cell viability, IGR37 XP, 1μΜ ([6]; 1μΜ, 72 h, in %): 78.5

COc1ccc(-c2ccc3ncc4c(c3c2)n(-c2ccc(N3CCNCC3)c(C(F)(F)F)c2)c(=O)n4C)cn1 [NVP-BGT226]
Cell viability in kinase inhibitor library screening, IGR37 GP, 10μΜ ([1]; 10μΜ, 72 h): 2.6% | Cell viability in kinase inhibitor library screening, IGR37 GP, 1μΜ ([1]; 1μΜ, 72 h, in %): 2.9 | Cell viability in kinase inhibitor library screening, 501Mel Parental, 1μΜ (501Mel cells (parental); 1μΜ, 72 h): 1.2 | Cell viability in kinase inhibitor library screening, 501Mel Parental, 10μΜ (501Mel cells (parental); 10μΜ, 72 h): 1.1 | Cell viability in kinase inhibitor library screening, A375 Parental, 10μΜ (A375 cells (parental); 10μΜ, 72 h): 0.952 | Cell viability in kinase inhibitor library screening, A375 Parental, 1μΜ (A375 cells (parental); 1μΜ, 72 h): 9.1 | Cell viability in kinase inhibitor library screening, 501Mel XP, 1μΜ ([2]; 1μΜ, 72 h): 1.5 | Cell viability in kinase inhibitor library screening, 501Mel XP, 10μΜ ([2]; 10μΜ, 72 h): 1.1 | Cell viability in kinase inhibitor library screening, A375 GP, 1μΜ ([3]; 1μΜ, 72 h): 7.1 | Cell viability in kinase inhibitor library screening, A375 GP, 10μΜ ([3]; 10μΜ, 72 h): 0.9 | Cell viability in kinase inhibitor library screening, IGR37 Parental, 1μΜ (IGR37 cells (parental); 1μΜ, 72 h): 2.3 | Cell viability in kinase inhibitor library screening, IGR37 Parental, 10μΜ (IGR37 cells (parental); 10μΜ, 72 h): -1.8 | Cell viability in kinase inhibitor library screening, A375 XP, 1μΜ ([4]; 1μΜ, 72 h): 7.2 | Cell viability in kinase inhibitor library screening, A375 XP, 10μΜ ([4]; 10μΜ, 72 h): 1.0 | Cell viability in kinase inhibitor library screening, 501Mel GP, 1μΜ ([5]; 1μΜ, 72 h): 0.9 | Cell viability in kinase inhibitor library screening, 501Mel GP, 10μΜ ([5]; 10μΜ, 72 h): 0.145 | Cell viability in kinase inhibitor library screening, IGR37 XP, 10μΜ ([6]; 10μΜ, 72 h): 1.4% | Cell viability in kinase inhibitor library screening, IGR37 XP, 1μΜ ([6]; 1μΜ, 72 h, in %): 2.5
